Experimental data reported in the NIST ThermoML archive (doi:10.1021/je700321s).
± gives the expanded uncertainty stated by the source.

Experiment: xn = mol fraction of the nth substance listed
Settings: Liquid, Vibrating tube method

CC(C)O [propan-2-ol] + O=C=O
Settings | mass density [kg/m3]
308.11 K, 1814 kPa, x2 = 0.139 | 786.2 ± 0.8
308.11 K, 2252 kPa, x2 = 0.139 | 786.8 ± 0.8
308.11 K, 3003 kPa, x2 = 0.139 | 787.7 ± 0.8
308.11 K, 3206 kPa, x2 = 0.139 | 787.9 ± 0.8
308.11 K, 3427 kPa, x2 = 0.139 | 788.2 ± 0.8
308.11 K, 3514 kPa, x2 = 0.2003 | 792.7 ± 0.8
308.11 K, 3607 kPa, x2 = 0.139 | 788.4 ± 0.8
308.11 K, 4006 kPa, x2 = 0.2003 | 793.4 ± 0.8
308.11 K, 4089 kPa, x2 = 0.139 | 788.9 ± 0.8
308.11 K, 4510 kPa, x2 = 0.2003 | 794 ± 0.8
308.11 K, 5013 kPa, x2 = 0.139 | 789.9 ± 0.8
308.11 K, 5028 kPa, x2 = 0.2003 | 794.7 ± 0.8
308.11 K, 5503 kPa, x2 = 0.139 | 790.5 ± 0.8
308.11 K, 5504 kPa, x2 = 0.2003 | 795.3 ± 0.8
308.11 K, 6002 kPa, x2 = 0.6086 | 812.2 ± 0.8
308.11 K, 6006 kPa, x2 = 0.2003 | 795.9 ± 0.8
308.11 K, 6019 kPa, x2 = 0.139 | 791 ± 0.8
308.11 K, 6221 kPa, x2 = 0.6086 | 813 ± 0.8
308.11 K, 6400 kPa, x2 = 0.6086 | 813.7 ± 0.8
308.11 K, 6517 kPa, x2 = 0.2003 | 796.5 ± 0.8
308.11 K, 6518 kPa, x2 = 0.139 | 791.7 ± 0.8
308.11 K, 6606 kPa, x2 = 0.6086 | 814.5 ± 0.8
308.11 K, 6807 kPa, x2 = 0.6086 | 815.2 ± 0.8
308.11 K, 6824 kPa, x2 = 0.7943 | 793.7 ± 1.3
308.11 K, 7001 kPa, x2 = 0.7943 | 795.6 ± 0.9
308.11 K, 7009 kPa, x2 = 0.139 | 792.2 ± 0.8
308.11 K, 7019 kPa, x2 = 0.6086 | 815.9 ± 0.8
308.11 K, 7029 kPa, x2 = 0.2003 | 797.2 ± 0.8
308.11 K, 7203 kPa, x2 = 0.6086 | 816.7 ± 0.8
308.11 K, 7206 kPa, x2 = 0.7943 | 797.4 ± 0.8
308.11 K, 7400 kPa, x2 = 0.7943 | 799.2 ± 0.8
308.11 K, 7401 kPa, x2 = 0.6086 | 817.4 ± 0.8
308.11 K, 7512 kPa, x2 = 0.139 | 792.7 ± 0.8
308.11 K, 7516 kPa, x2 = 0.2003 | 797.7 ± 0.8
308.11 K, 7607 kPa, x2 = 0.6086 | 818.3 ± 0.8
308.11 K, 7607 kPa, x2 = 0.7943 | 801.1 ± 0.8
308.11 K, 7804 kPa, x2 = 0.6086 | 818.9 ± 0.8
308.11 K, 7810 kPa, x2 = 0.7943 | 803 ± 0.8
308.11 K, 8001 kPa, x2 = 0.2003 | 798.3 ± 0.8
308.11 K, 8005 kPa, x2 = 0.6086 | 819.7 ± 0.8
308.11 K, 8007 kPa, x2 = 0.7943 | 804.6 ± 0.8
308.11 K, 8016 kPa, x2 = 0.139 | 793.3 ± 0.8
308.11 K, 8197 kPa, x2 = 0.7943 | 806.2 ± 0.8
308.11 K, 8209 kPa, x2 = 0.6086 | 820.4 ± 0.8
308.11 K, 8414 kPa, x2 = 0.7943 | 807.8 ± 0.8
308.11 K, 8511 kPa, x2 = 0.2003 | 798.9 ± 0.8
308.11 K, 8530 kPa, x2 = 0.139 | 793.9 ± 0.8
308.11 K, 8600 kPa, x2 = 0.6086 | 821.7 ± 0.8
308.11 K, 8618 kPa, x2 = 0.7943 | 809.6 ± 0.8
308.11 K, 8796 kPa, x2 = 0.7943 | 810.8 ± 0.8
308.11 K, 8810 kPa, x2 = 0.6086 | 822.4 ± 0.8
308.11 K, 8990 kPa, x2 = 0.139 | 794.3 ± 0.8
308.11 K, 9000 kPa, x2 = 0.6086 | 823.1 ± 0.8
308.11 K, 9017 kPa, x2 = 0.7943 | 812.5 ± 0.8
308.11 K, 9019 kPa, x2 = 0.2003 | 799.5 ± 0.8
308.11 K, 9101 kPa, x2 = 0.6086 | 823.3 ± 0.9
308.11 K, 9200 kPa, x2 = 0.6086 | 823.8 ± 0.9
308.11 K, 9203 kPa, x2 = 0.7943 | 813.9 ± 0.8
308.11 K, 9400 kPa, x2 = 0.7943 | 815.3 ± 0.9
308.11 K, 9498 kPa, x2 = 0.139 | 794.8 ± 0.8
308.11 K, 9607 kPa, x2 = 0.7943 | 816.6 ± 0.9
308.11 K, 9807 kPa, x2 = 0.7943 | 818 ± 0.9
308.11 K, 9902 kPa, x2 = 0.7943 | 818.6 ± 1
308.11 K, 10003 kPa, x2 = 0.2003 | 800.7 ± 0.8
308.11 K, 10047 kPa, x2 = 0.2003 | 800.8 ± 0.8
308.12 K, 4780 kPa, x2 = 0.4248 | 807.5 ± 0.8
308.12 K, 5038 kPa, x2 = 0.4248 | 808.2 ± 0.8
308.12 K, 5326 kPa, x2 = 0.4248 | 808.8 ± 0.8
308.12 K, 5517 kPa, x2 = 0.4248 | 809.2 ± 0.8
308.12 K, 6029 kPa, x2 = 0.4248 | 810.3 ± 0.8
308.12 K, 6505 kPa, x2 = 0.4248 | 811.3 ± 0.8
308.12 K, 6515 kPa, x2 = 0.4248 | 811.4 ± 0.8
308.12 K, 6714 kPa, x2 = 0.4248 | 811.8 ± 0.8
308.12 K, 7035 kPa, x2 = 0.4248 | 812.4 ± 0.8
308.12 K, 7207 kPa, x2 = 0.4248 | 812.8 ± 0.8
308.12 K, 7302 kPa, x2 = 0.9492 | 699.6 ± 2
308.12 K, 7402 kPa, x2 = 0.9492 | 704.9 ± 2
308.12 K, 7501 kPa, x2 = 0.4248 | 813.4 ± 0.8
308.12 K, 7605 kPa, x2 = 0.9492 | 713.8 ± 1.7
308.12 K, 7700 kPa, x2 = 0.4248 | 813.8 ± 0.8
308.12 K, 7802 kPa, x2 = 0.9492 | 720.9 ± 1
308.12 K, 8002 kPa, x2 = 0.9492 | 728 ± 1.3
308.12 K, 8024 kPa, x2 = 0.4248 | 814.4 ± 0.8
308.12 K, 8204 kPa, x2 = 0.9492 | 734.5 ± 1
308.12 K, 8404 kPa, x2 = 0.9492 | 740.3 ± 1.1
308.12 K, 8605 kPa, x2 = 0.9492 | 745.7 ± 1.1
308.12 K, 8606 kPa, x2 = 0.4248 | 815.6 ± 0.8
308.12 K, 8802 kPa, x2 = 0.4248 | 816 ± 0.8
308.12 K, 8802 kPa, x2 = 0.9492 | 750.6 ± 0.9
308.12 K, 9002 kPa, x2 = 0.4248 | 816.4 ± 0.8
308.12 K, 9004 kPa, x2 = 0.9492 | 755.4 ± 1
308.12 K, 9201 kPa, x2 = 0.9492 | 759.7 ± 0.9
308.12 K, 9408 kPa, x2 = 0.9492 | 764 ± 1
308.12 K, 9529 kPa, x2 = 0.4248 | 817.3 ± 0.8
308.12 K, 9610 kPa, x2 = 0.9492 | 768 ± 1
308.12 K, 9805 kPa, x2 = 0.9492 | 771.5 ± 0.9
308.12 K, 9898 kPa, x2 = 0.4248 | 818 ± 0.8
308.12 K, 10003 kPa, x2 = 0.9492 | 774.9 ± 1
308.12 K, 10202 kPa, x2 = 0.9492 | 778 ± 0.9
308.12 K, 10405 kPa, x2 = 0.9492 | 780.9 ± 0.9
308.12 K, 10617 kPa, x2 = 0.9492 | 783.7 ± 0.9
308.12 K, 10807 kPa, x2 = 0.9492 | 785.9 ± 0.9
308.13 K, 7456 kPa, x2 = 0.9715 | 611.7 ± 4.1
308.13 K, 7502 kPa, x2 = 0.9715 | 636.2 ± 4.7
308.13 K, 7992 kPa, x2 = 0.9715 | 680.6 ± 1.8
308.13 K, 8522 kPa, x2 = 0.9715 | 706.8 ± 1.2
308.13 K, 8997 kPa, x2 = 0.9715 | 724.3 ± 1.1
308.13 K, 9508 kPa, x2 = 0.9715 | 739.8 ± 1
308.13 K, 10027 kPa, x2 = 0.9715 | 752.9 ± 1
308.13 K, 10521 kPa, x2 = 0.9715 | 763.7 ± 0.9
308.13 K, 11017 kPa, x2 = 0.9715 | 773.2 ± 0.9
308.13 K, 11500 kPa, x2 = 0.9715 | 781.6 ± 0.9
308.13 K, 12008 kPa, x2 = 0.9715 | 789.6 ± 0.9
308.13 K, 12520 kPa, x2 = 0.9715 | 797.2 ± 0.9
308.13 K, 13012 kPa, x2 = 0.9715 | 803.8 ± 0.9
308.13 K, 13520 kPa, x2 = 0.9715 | 810.4 ± 0.9
308.13 K, 14014 kPa, x2 = 0.9715 | 816.4 ± 0.9
308.13 K, 14520 kPa, x2 = 0.9715 | 822.1 ± 0.9
308.13 K, 15000 kPa, x2 = 0.9715 | 827.3 ± 0.9
313.08 K, 7544 kPa, x2 = 0.7943 | 777.4 ± 1.3
313.08 K, 7601 kPa, x2 = 0.7943 | 778.5 ± 1.1
313.08 K, 7810 kPa, x2 = 0.7943 | 780.8 ± 0.9
313.08 K, 8013 kPa, x2 = 0.7943 | 783 ± 0.9
313.08 K, 8205 kPa, x2 = 0.7943 | 784.9 ± 0.9
313.08 K, 8410 kPa, x2 = 0.7943 | 786.8 ± 0.9
313.08 K, 8593 kPa, x2 = 0.7943 | 788.4 ± 0.8
313.08 K, 8800 kPa, x2 = 0.7943 | 790.3 ± 0.8
313.08 K, 8999 kPa, x2 = 0.7943 | 792.2 ± 0.8
313.08 K, 9208 kPa, x2 = 0.7943 | 794 ± 0.8
313.08 K, 9405 kPa, x2 = 0.7943 | 795.7 ± 0.8
313.08 K, 9619 kPa, x2 = 0.7943 | 797.5 ± 0.8
313.08 K, 9803 kPa, x2 = 0.7943 | 799 ± 0.8
